The values that follow come from US20230000869A1, “NOVEL ALK2 INHIBITORS AND METHODS FOR INHIBITING BMP SIGNALING” (The Brigham and Women's Hospital, Inc., priority 2017, published 2023).

Each structure is given as a SMILES string. pIC50: −log10 of the molar value.

The subject of experiment [1] is TGFβ. As to the kind of experiment: Luciferase reporter gene assay for TGFβ activity (HEK293T SBE-Luc SMAD2/3 reporter, TGFβ agonist). The experiment is classed as cell-based. The following applies: Homo sapiens, HEK-293T, TGFβ 5 ng/mL. An outline of the steps: (§1)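 TGFβ activity was measured in HEK293T SBE-Luc cells stimulated with 5 ng/mL TGFβ, at compound 10000-30 nM final. ALK2 activity was measured in C2C12 BRE-Luc cells stimulated with 50 ng/mL BMP6, at compound 1000-0.3 nM final. Compound was preincubated 45 min in 2% FBS medium; after ≥18 h agonist exposure, luminescence was read and inhibition expressed as % signal loss versus background-subtracted agonist controls.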
(In general: A reporter such as luciferase makes a cellular process visible.)

Experiment [2] addresses T1, ALK2 (Mus musculus, UniProt P37172).
T1 construct: endogenous in cells; host or cells: C2C12-BRE (BRE-Luc reporter line, G418 selection)
T1 sequence (P37172 21-509): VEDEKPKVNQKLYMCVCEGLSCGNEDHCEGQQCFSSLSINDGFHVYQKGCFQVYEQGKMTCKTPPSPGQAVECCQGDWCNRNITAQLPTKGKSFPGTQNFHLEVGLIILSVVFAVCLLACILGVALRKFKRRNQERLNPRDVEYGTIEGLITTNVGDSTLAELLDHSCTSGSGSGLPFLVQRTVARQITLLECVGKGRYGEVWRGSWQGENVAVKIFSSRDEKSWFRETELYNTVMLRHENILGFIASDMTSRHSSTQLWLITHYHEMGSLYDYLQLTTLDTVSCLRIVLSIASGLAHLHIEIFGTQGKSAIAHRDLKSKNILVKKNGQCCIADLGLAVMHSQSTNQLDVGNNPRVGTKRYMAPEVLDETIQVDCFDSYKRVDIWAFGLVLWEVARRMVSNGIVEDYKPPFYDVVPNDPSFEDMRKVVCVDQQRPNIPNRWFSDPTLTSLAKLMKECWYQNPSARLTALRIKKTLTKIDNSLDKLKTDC
The experiment in a line: Luciferase reporter gene assay for ALK2 activity (C2C12 BRE-Luc SMAD1/5/8 reporter, BMP6 agonist). The conditions noted are these: BMP6 50 ng/mL. The experiment is classed as cell-based. An outline of the steps:
as §1

For `Cc1cc(-c2cnn3cc(N4CCC(N5CCN(C)CC5)CC4)cnc23)c2cccc(C(F)(F)F)c2n1` [Compound 268], the values for the negative-log IC50 (pIC50) in experiment [1] and in experiment [2] were less than 6.00 and 7.01, respectively.
Turning to `CN1CCN(C2CCN(c3cnc4c(-c5ccnc6cn[nH]c56)cnn4c3)CC2)CC1` [Compound 269], the pIC50 in experiment [1] was less than 5.52; in experiment [2], 6.51.
With `Cc1cccc2c(-c3cnn4cc(N5CCC(N6CCN(C)CC6)CC5)cnc34)ccnc12` [Compound 270], the figures for the negative-log IC50 (pIC50) in experiment [1] and in experiment [2] were less than 5.52 and 6.25, respectively.
For `COc1ccc2ncc(F)c(-c3cnn4cc(N5CCC(N6CCN(C)CC6)CC5)cnc34)c2c1` [Compound 271], in that order: less than 5.52 and less than 5.52.
For `COc1cc(-c2cnn3cc(N4CCC(N5CCN(C)CC5)CC4)cnc23)ccn1` [Compound 272], in that order: less than 6.00 and 6.82.
Turning to `COc1cc(F)c2nccc(-c3cnn4cc(N5CCC(N6CCN(C)CC6)CC5)cnc34)c2c1` [Compound 273], the pIC50 in experiment [1] was 6.57; in experiment [2], 7.85.
On the same counts, the results for `COc1cc(-c2cnn3cc(N4CCC(N5CCN(C)CC5)CC4)cnc23)cc(OC)c1OC` [Compound 274] are 6.49 and 7.49.
For `Cc1cc(-c2cnn3cc(N4CCC(N5CCN(C)CC5)CC4)cnc23)c2cc(F)ccc2n1` [Compound 275], in that order: 7.14 and 6.88.
In the case of `Cc1cc(-c2cnn3cc(N4CCC(N5CCN(C)CC5)CC4)cnc23)c2cc(F)cc(F)c2n1` [Compound 276], the values for the pIC50 in experiment [1] and in experiment [2] were 7.19 and 6.79, respectively.
As for `CN1CCN(C2CCN(c3cnc4c(-c5ccncc5)cnn4c3)CC2)CC1` [Compound 277], the negative-log IC50 (pIC50) in experiment [1] is less than 5.52; in experiment [2], less than 6.00.
For `Cc1ccc2nccc(-c3cnn4cc(N5CCC(N6CCN(C)CC6)CC5)cnc34)c2c1F` [Compound 278], in that order: 6.05 and 7.51.
For `CNc1ccc2nccc(-c3cnn4cc(N5CCC(N6CCN(C)CC6)CC5)cnc34)c2c1` [Compound 279], in that order: less than 6.00 and 7.26.
For `CN1CCN(C2CCN(c3cnc4c(-c5ccnc6ccc(N(C)C)cc56)cnn4c3)CC2)CC1` [Compound 280], in that order: less than 5.70 and 7.59.
With `CC(=O)Nc1ccc2nccc(-c3cnn4cc(N5CCC(N6CCN(C)CC6)CC5)cnc34)c2c1` [Compound 281], the pIC50 in experiment [1] and in experiment [2] was less than 5.52 throughout.
Consider `COc1cc2c(-c3cnn4cc(N5CC6(CN(C)C6)C5)cnc34)ccnc2cc1F` [Compound 282], for which the negative-log IC50 (pIC50) in experiment [1] was 7.02; in experiment [2], 8.00.
For `COc1cc2c(-c3cnn4cc(N5CCC6(CC5)CN(C)C6)cnc34)ccnc2cc1F` [Compound 290], in that order: 7.20 and 7.92.
As for `CN1CCN(C2CN(c3cnc4c(-c5cccc6c(C(N)=O)cccc56)cnn4c3)C2)CC1` [Compound 307], the pIC50 in experiment [1] was less than 5.52; in experiment [2], less than 6.00.
Consider `Cc1cc2c(-c3cnn4cc(N5CC(N6CCN(C)CC6)C5)cnc34)ccnc2cc1F` [Compound 308], for which the values for the pIC50 in experiment [1] and in experiment [2] were 6.23 and 6.80, respectively.
On the same counts, the results for `COc1cc(-c2cnn3cc(N4CC(N5CCN(C)CC5)C4)cnc23)cc(OC)c1OC` [Compound 309] are 6.47 and 7.55.
Regarding `Cc1cc(-c2cnn3cc(N4CC(N5CCN(C)CC5)C4)cnc23)c2ccc(F)cc2n1` [Compound 310], the results for the negative-log IC50 (pIC50) in experiment [1] and in experiment [2] were 7.42 and 7.68, respectively.
Take `Cc1cc(-c2cnn3cc(N4CC(N5CCN(C)CC5)C4)cnc23)c2cc(F)cc(F)c2n1` [Compound 311]: the pIC50 in experiment [1] was 7.22; in experiment [2], 7.48.
On the same counts, the results for `CN1CCN(C2CN(c3cnc4c(-c5ccncc5)cnn4c3)C2)CC1` [Compound 313] are less than 5.52 and 8.70.
Regarding `COc1cc(F)c2nccc(-c3cnn4cc(N5CC(N6CCN(C)CC6)C5)cnc34)c2c1` [Compound 314], the values for the negative logarithm of the IC50 (pIC50) in experiment [1] and in experiment [2] were 7.57 and 8.10, respectively.
On to `Cc1cc(-c2cnn3cc(N4CC(N5CCN(C)CC5)C4)cnc23)c2ccc(F)c(F)c2n1` [Compound 315], for which the pIC50 in experiment [1] is 7.52; in experiment [2], 7.64.
For `Cc1cc(-c2cnn3cc(N4CC(N5CCN(C)CC5)C4)cnc23)c2cccc(F)c2n1` [Compound 316], in that order: more than 7.70 and 7.66.
For `[2H]C([2H])([2H])c1ccc2nccc(-c3cnn4cc(N5CCC(N6CCN(C)CC6)CC5)cnc34)c2c1` [Compound 320], in that order: 6.22 and 7.57.
On the same counts, the results for `COc1cc2c(-c3cnn4cc(N5CCC(N6CCN(C)C(=O)C6)CC5)cnc34)ccnc2cc1F` [Compound 323] are less than 6.00 and 6.71.
For the compound `COc1cc2c(-c3cnn4cc(N5CCC(N6CCN(C)CC6)CC5)cnc34)cc[n+]([O-])c2cc1F` [Compound 324], the negative logarithm of the IC50 (pIC50) in experiment [1] was 6.14; in experiment [2], 6.75.
In the case of `COc1cc2c(-c3cnn4cc(N5CCNCC5=O)cnc34)ccnc2cc1F` [Compound 326], the pIC50 is less than 5.52 in experiment [1] and less than 6.00 in experiment [2].
For `COc1cc2c(-c3cnn4cc(N5CCC(N6CCN(C)CC6=O)CC5)cnc34)ccnc2cc1F` [Compound 329], in that order: less than 5.52 and less than 6.00.
For the compound `COc1cc2c(-c3cnc4cc(N5CC(N6CCN(C)CC6)C5)cnn34)ccnc2cc1F` [Compound 335], the negative-log IC50 (pIC50) in experiment [1] was less than 5.70; in experiment [2] it was 7.33.
`Cc1cc(-c2cnn3cc(N4CC5(CC(N(C)C)C5)C4)cnc23)c2ccccc2n1` [Compound 337]: the pIC50 was more than 9.00 in experiment [1] and 8.05 in experiment [2].
On the same counts, the results for `CN1CCN(C2CN(c3cnc4c(N5CCN(C(=O)C6CC6)CC5)cnn4c3)C2)CC1` [Compound 339] are less than 5.52 and less than 6.00.
Turning to `Cc1ccc2nccc(-c3cnn4cc(N5CCC(N6CCOCC6)CC5)cnc34)c2c1` [Compound 341], the pIC50 in experiment [1] is 6.11; in experiment [2] it was 7.82.
`[2H]C([2H])([2H])Oc1cc2c(-c3cnn4cc(N5CCC(N6CCN(C)CC6)CC5)cnc34)ccnc2cc1F` [Compound 346]: the pIC50 in experiment [1] is 6.16; in experiment [2], 7.74.
On the same counts, the results for `Cc1cc(-c2cnn3cc(N4CC(OCCN(C)C)C4)cnc23)c2ccccc2n1` [Compound 350] are 6.01 and 6.32.
For the compound `COc1cc2c(-c3cnc4cc(N5CCC(N6CCN(C)CC6)CC5)ccn34)ccnc2cc1F` [Compound 351], the pIC50 in experiment [1] is less than 5.52; in experiment [2], 6.43.
For `COc1cc2c(-c3nnc4cc(N5CCC(N6CCN(C)CC6)CC5)ccn34)ccnc2cc1F` [Compound 354], in that order: less than 5.52 and less than 6.00.
Turning to `COc1cc2c(-c3cnc4cc(N5CCC(N6CCN(C)CC6)CC5)cnn34)ccnc2cc1F` [Compound 355], the values for the pIC50 in experiment [1] and in experiment [2] were 6.10 and 6.84, respectively.
Regarding `Cc1ccc2nccc(-c3cnn4cc(N5CC(c6ccncc6)C5)cnc34)c2c1` [Example 292], the results for the pIC50 in experiment [1] and in experiment [2] were 6.23 and 6.80, respectively.
Turning to `Cc1cc(-c2cnn3cc(N4CC5(CC(N)C5)C4)cnc23)c2ccccc2n1` [Example 295], the pIC50 in experiment [1] was 6.41; in experiment [2], 7.89.
On the same counts, the results for `COc1cc2c(-c3cnn4cc(N5C[C@@H]6C(N(C)C)[C@@H]6C5)cnc34)ccnc2cc1F` (stereo partly shown) [Example 297] are less than 6.00 and 7.68.
On the same counts, the results for `Cc1cc(-c2cnn3cc(N4CC5(CN(C)C5)C4)cnc23)c2ccccc2n1` [Example 298] are more than 9.00 and 8.52.
As to `Cc1cc2c(-c3cnn4cc(N5CC(N6CCOCC6)C5)cnc34)ccnc2cc1F` [Example 301], the negative-log IC50 (pIC50) in experiment [1] is more than 7.70; in experiment [2], 7.74.

For orientation: pIC50 means −log10 of the IC50, conventionally taken in molar units.
